Measurements: US12084437B2, “Halo-substituted piperidines as orexin receptor modulators” (AstraZeneca AB, priority 2016, dated 2024)
Where “and” joins values, the source holds several entries; their conditions need not be identical. Equal entries are not always repeated.

Tests used:
OX1 = molecular target: T1, OX1 (Homo sapiens, UniProt O43613); test: Orexin receptor cell-based functional assay, [Ca2+]i by FLIPR, CHO-OX1 cells; conditions: FLIPR calcium, antagonism of EC90 of [OX], read-out: OXI, IC50
T1 construct: expressed in transfected cells; host or cells: CHO (CHO-OX1)
T1 sequence (O43613 1-425): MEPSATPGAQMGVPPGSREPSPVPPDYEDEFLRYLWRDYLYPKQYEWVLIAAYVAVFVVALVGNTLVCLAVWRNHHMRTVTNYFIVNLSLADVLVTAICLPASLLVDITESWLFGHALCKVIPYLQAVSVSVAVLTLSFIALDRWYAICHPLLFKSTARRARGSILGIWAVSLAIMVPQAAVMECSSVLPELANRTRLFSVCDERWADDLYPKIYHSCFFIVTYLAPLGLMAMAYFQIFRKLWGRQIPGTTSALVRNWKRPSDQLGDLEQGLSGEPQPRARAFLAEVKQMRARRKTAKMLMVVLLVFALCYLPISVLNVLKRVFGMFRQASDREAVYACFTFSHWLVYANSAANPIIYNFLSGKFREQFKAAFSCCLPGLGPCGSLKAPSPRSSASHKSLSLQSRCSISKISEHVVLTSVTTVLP

OX2 = molecular target: T2, OX2 (Homo sapiens, UniProt O43614); test: Orexin receptor cell-based functional assay, [Ca2+]i by FLIPR, CHO-OX2 cells; conditions: FLIPR calcium, antagonism of EC90 of [OX]
T2 construct: expressed in transfected cells; host or cells: CHO (CHO-OX2)
T2 sequence (O43614 1-444): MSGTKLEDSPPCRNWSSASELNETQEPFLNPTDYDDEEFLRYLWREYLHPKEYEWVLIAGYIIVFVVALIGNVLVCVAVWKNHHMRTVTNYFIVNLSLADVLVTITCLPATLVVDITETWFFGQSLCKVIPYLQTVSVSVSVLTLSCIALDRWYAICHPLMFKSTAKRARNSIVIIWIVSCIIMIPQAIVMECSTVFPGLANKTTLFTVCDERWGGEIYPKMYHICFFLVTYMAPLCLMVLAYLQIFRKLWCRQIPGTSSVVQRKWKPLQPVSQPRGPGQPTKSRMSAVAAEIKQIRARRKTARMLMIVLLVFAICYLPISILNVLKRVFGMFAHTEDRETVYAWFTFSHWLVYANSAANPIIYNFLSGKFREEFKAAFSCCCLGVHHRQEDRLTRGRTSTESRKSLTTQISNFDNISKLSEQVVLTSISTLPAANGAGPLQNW
Method in brief: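 CHO cells expressing human OX1 or OX2 (20,000/well, grown overnight) were loaded with Calcium6 dye plus 2.5 mM probenecid for 2 h at 37 °C, then preincubated 30 min with compound (0.1 nM–10 µM). FLIPR fluorescence (ex 488/em 540 nm) was tracked before and after an EC90 orexin challenge.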

SMILES | IC50 (OX1) | IC50 (OX2) [nM]
Cc1cccc(-c2sc(C)nc2C(=O)N2CC(F)(F)C[C@@H](C)[C@H]2CNc2cnc(C(F)(F)F)cn2)c1 [Compound 139] | 10 nM | > 5000
C[C@@H]1CC(F)(F)CN(C(=O)c2nn(C)cc2-c2ccccc2)[C@@H]1CNc1ncc(Cl)cn1 [Compound 22] | 7 nM | > 5000
COc1cccc(-c2cn(C)nc2C(=O)N2CC(F)(F)C[C@@H](C)[C@H]2CNc2cnc(C(F)(F)F)cn2)c1 [Compound 124] | 4 nM | 1000
Cc1ccc(-n2nccn2)c(C(=O)N2CC(F)(F)C[C@@H](C)[C@H]2CNc2ncc(Cl)cn2)c1 [Compound 6] | 8 nM | > 5000
Cc1ccc(-c2ccc(C)nc2C(=O)N2CC(F)(F)C[C@@H](C)[C@H]2CNc2ncc(C(F)(F)F)cn2)nc1 [Compound 231, ((2S,3R)-5,5-difluoro-3-methyl-2-(((5-(trifluoromethyl)pyrimidin-2-yl)amino)methyl)piperidin-1-yl)(5,6′-dimethyl-[2,3′-bipyridin]-2′-yl)methanone] | 14 nM | > 5000
Cc1ccc(-c2sc(C)nc2C(=O)N2CC(F)(F)C[C@@H](C)[C@H]2CNc2cnc(C(F)(F)F)cn2)cc1 [Compound 138] | 6 nM | > 5000
Cc1ccc(-c2nnn(C)n2)c(C(=O)N2CC(F)(F)C[C@@H](C)[C@H]2CNc2ncc(C(F)(F)F)cn2)n1 [Compound 240, ((2S,3R)-5,5-difluoro-3-methyl-2-(((5-(trifluoromethyl)pyrimidin-2-yl)amino)methyl)piperidin-1-yl)(6-methyl-3-(2-methyl-2H-tetrazol-5-yl)pyridin-2-yl)methanone] | 29 nM | > 5000
C[C@@H]1CC(F)(F)CN(C(=O)c2cc(F)ccc2-c2ncccn2)[C@@H]1CNc1ncc(C(F)(F)F)cn1 [Compound 54] | 43 nM | > 5000
C[C@@H]1CC(F)(F)CN(C(=O)c2cc(Cl)ccc2-c2nnn(C)n2)[C@@H]1CNc1cnc(C(F)(F)F)cn1 [Compound 161] | 9 nM | > 5000
Cc1ccnc(-c2cn(C)nc2C(=O)N2CC(F)(F)C[C@@H](C)[C@H]2CNc2cnc(C(F)(F)F)cn2)c1 [Compound 134] | 4 nM | > 5000
CC#Cc1ccc(C)nc1C(=O)N1CC(F)(F)C[C@@H](C)[C@H]1CNc1ncc(C(F)(F)F)cn1 [Compound 235, ((2S,3R)-5,5-difluoro-3-methyl-2-(((5-(trifluoromethyl)pyrimidin-2-yl)amino)methyl)piperidin-1-yl)(6-methyl-3-(prop-1-yn-1-yl)pyridin-2-yl)methanone] | 250 nM | > 5000
Cc1ccc(-c2cn(C)nc2C(=O)N2CC(F)(F)C[C@@H](C)[C@H]2CNc2cnc(C(F)(F)F)cn2)cc1 [Compound 122] | 5 nM | > 5000
Cc1nc(C(=O)N2CC(F)(F)C[C@@H](C)[C@H]2CNc2ncc(C(F)(F)F)cn2)c(-c2ccccn2)o1 [Compound 87] | > 1000 nM | > 5000
C[C@@H]1CC(F)(F)CN(C(=O)c2cc(Cl)ccc2-c2ncccn2)[C@@H]1CNc1ncc(Cl)cn1 [Compound 57, (5-chloro-2-(pyrimidin-2-yl)phenyl)((2S,3R)-2-(((5-chloropyrimidin-2-yl)amino)methyl)-5,5-difluoro-3-methylpiperidin-1-yl)methanone] | 24 nM | > 5000
Cc1ccc(-n2nccn2)c(C(=O)N2CC(F)(F)C[C@@H](C)[C@H]2CNc2ncc(Cl)cn2)n1 [Compound 13] | 15 nM | > 5000
C[C@@H]1CC(F)(F)CN(C(=O)c2cc(Cl)ccc2-n2nccn2)[C@@H]1CNc1ncc(C(F)(F)F)cn1 [Compound 10] | 7 nM | > 5000
Cc1c(-c2ncccn2)c(C(=O)N2CC(F)(F)C[C@@H](C)[C@H]2CNc2ncc(C(F)(F)F)cn2)nn1C [Compound 233, ((2S,3R)-5,5-difluoro-3-methyl-2-(((5-(trifluoromethyl)pyrimidin-2-yl)amino)methyl)piperidin-1-yl)(1,5-dimethyl-4-(pyrimidin-2-yl)-1H-pyrazol-3-yl)methanone] | 1 nM | > 5000

Results, then the compound that gave them:

IC50 (OX1) | IC50 (OX2) [nM] | SMILES
4 nM | 4700 | C[C@@H]1CC(F)(F)CN(C(=O)c2nn(C)cc2-c2ccc(Cl)cc2)[C@@H]1CNc1ncc(C(F)(F)F)cn1 [Compound 33]
6 nM | > 5000 | C[C@@H]1CC(F)(F)CN(C(=O)c2nn(C)cc2-c2ccccn2)[C@@H]1CNc1cnc(C(F)(F)F)cn1 [Compound 130]
47 nM | > 5000 | COc1ccc(-c2cn(C)nc2C(=O)N2CC(F)(F)C[C@@H](C)[C@H]2CNc2ncc(C(F)(F)F)cn2)nc1 [Compound 45]
4 nM | > 5000 | C[C@@H]1CC(F)(F)CN(C(=O)c2nn(C)cc2-c2ncccn2)[C@@H]1CNc1ccc(C(F)(F)F)cn1 [Compound 200, ((2S,3R)-5,5-difluoro-3-methyl-2-(((5-(trifluoromethyl)pyridin-2-yl)amino)methyl)piperidin-1-yl)(1-methyl-4-(pyrimidin-2-yl)-1H-pyrazol-3-yl)methanone]
62 nM | > 5000 | C[C@@H]1CC(F)(F)CN(C(=O)c2nn(C)cc2-c2cnccn2)[C@@H]1CNc1ncc(C(F)(F)F)cn1 [Compound 224, ((2S,3R)-5,5-difluoro-3-methyl-2-(((5-(trifluoromethyl)pyrimidin-2-yl)amino)methyl)piperidin-1-yl)(1-methyl-4-(pyrazin-2-yl)-1H-pyrazol-3-yl)methanone]
6 nM | 170 | COc1ccc(-c2cn(C)nc2C(=O)N2CC(F)(F)C[C@@H](C)[C@H]2CNc2ccc(C(F)(F)F)cn2)cc1 [Compound 177]
52 nM | > 5000 | C[C@@H]1CC(F)(F)CN(C(=O)c2nn(C)cc2-c2ncccn2)[C@@H]1COc1cnc(C(F)(F)F)cn1 [Compound 223, ((2S,3R)-5,5-difluoro-3-methyl-2-(((5-(trifluoromethyl)pyrazin-2-yl)oxy)methyl)piperidin-1-yl)(1-methyl-4-(pyrimidin-2-yl)-1H-pyrazol-3-yl)methanone]
437 nM | > 5000 | C[C@@H]1CC(F)(F)CN(C(=O)c2nn(C)cc2-c2ncccn2)[C@@H]1COc1ncc(C(F)(F)F)cc1F [Compound 247]
2 nM | > 5000 | C[C@@H]1CC(F)(F)CN(C(=O)c2nn(C)cc2-c2ccccc2)[C@@H]1CNc1ncc(C(F)(F)F)cn1 [Compound 21]
1160 nM | > 5000 | Cc1cccnc1-c1cn(C)nc1C(=O)N1CC(F)(F)C[C@@H](C)[C@H]1CNc1ncc(C(F)(F)F)cn1 [Compound 39]
12 nM and 6 nM | > 5000 | Cc1ccc(-c2cn(C)nc2C(=O)N2CC(F)(F)C[C@@H](C)[C@H]2CNc2ncc(C(F)(F)F)cn2)cc1 [Compound 32]
280 nM | > 5000 | C[C@@H]1CC(F)(F)CN(C(=O)c2cn(C)nc2-c2ccccc2)[C@@H]1COc1ncc(C(F)(F)F)cn1 [Compound 209]
8 nM | > 5000 | C[C@@H]1CC(F)(F)CN(C(=O)c2nn(C)cc2-c2ccccn2)[C@@H]1COc1ccc(C(F)(F)F)cn1 [Compound 220, ((2S,3R)-5,5-difluoro-3-methyl-2-(((5-(trifluoromethyl)pyridin-2-yl)oxy)methyl)piperidin-1-yl)(1-methyl-4-(pyridin-2-yl)-1H-pyrazol-3-yl)methanone]
23 nM | > 5000 | Cc1ccc(-c2cn(C)nc2C(=O)N2CC(F)(F)C[C@@H](C)[C@H]2CNc2ncc(C(F)(F)F)cn2)cn1 [Compound 89]
52 nM | > 5000 | C[C@@H]1CC(F)(F)CN(C(=O)c2nn(C)cc2-c2ccc(F)cc2)[C@@H]1COc1ccc(C(F)(F)F)cn1 [Compound 205, ((2S,3R)-5,5-difluoro-3-methyl-2-(((5-(trifluoromethyl)pyridin-2-yl)oxy)methyl)piperidin-1-yl)(4-(4-fluorophenyl)-1-methyl-1H-pyrazol-3-yl)methanone]
156 nM | > 5000 | C[C@@H]1CC(F)(F)CN(C(=O)c2cn(C)nc2-c2ccccn2)[C@@H]1CNc1ncc(C(F)(F)F)cn1 [Compound 93]
